Activity calls are given as the source filed them. No cut-off for these calls is given here.

Holding throughout (format): functional, cell-based
Test [1] deals with PC-12. Briefly: Induction of PC12 cell differentiation at 100 ug/ml. The following applies: Rattus norvegicus.
Test [2] addresses High affinity nerve growth factor receptor (Rattus norvegicus) (UniProt P35739). As to the kind of experiment: Induction of NGF receptor-induced differentiation of PC12 cells at 100 and 10 ug/ml. The settings on record: PC-12.
Test [3] has as its system PC-12. Briefly: Inhibition of PC12 cell differentiation at 100 ug/ml (No effect). The settings on record: Rattus norvegicus.
The target in test [4] is High affinity nerve growth factor receptor (Rattus norvegicus) (UniProt P35739). As to the kind of experiment: Inhibition of NGF receptor-induced differentiation of PC12 cells at 100 ug/ml (No effect). The following applies: PC-12.
For test [5] the target is unchanged. Briefly: Induction of NGF receptor-induced differentiation of PC12 cells at 1-100 ug/ml. The following applies: PC-12.

High affinity nerve growth factor receptor (Rattus norvegicus), sequence (P35739 whole entry): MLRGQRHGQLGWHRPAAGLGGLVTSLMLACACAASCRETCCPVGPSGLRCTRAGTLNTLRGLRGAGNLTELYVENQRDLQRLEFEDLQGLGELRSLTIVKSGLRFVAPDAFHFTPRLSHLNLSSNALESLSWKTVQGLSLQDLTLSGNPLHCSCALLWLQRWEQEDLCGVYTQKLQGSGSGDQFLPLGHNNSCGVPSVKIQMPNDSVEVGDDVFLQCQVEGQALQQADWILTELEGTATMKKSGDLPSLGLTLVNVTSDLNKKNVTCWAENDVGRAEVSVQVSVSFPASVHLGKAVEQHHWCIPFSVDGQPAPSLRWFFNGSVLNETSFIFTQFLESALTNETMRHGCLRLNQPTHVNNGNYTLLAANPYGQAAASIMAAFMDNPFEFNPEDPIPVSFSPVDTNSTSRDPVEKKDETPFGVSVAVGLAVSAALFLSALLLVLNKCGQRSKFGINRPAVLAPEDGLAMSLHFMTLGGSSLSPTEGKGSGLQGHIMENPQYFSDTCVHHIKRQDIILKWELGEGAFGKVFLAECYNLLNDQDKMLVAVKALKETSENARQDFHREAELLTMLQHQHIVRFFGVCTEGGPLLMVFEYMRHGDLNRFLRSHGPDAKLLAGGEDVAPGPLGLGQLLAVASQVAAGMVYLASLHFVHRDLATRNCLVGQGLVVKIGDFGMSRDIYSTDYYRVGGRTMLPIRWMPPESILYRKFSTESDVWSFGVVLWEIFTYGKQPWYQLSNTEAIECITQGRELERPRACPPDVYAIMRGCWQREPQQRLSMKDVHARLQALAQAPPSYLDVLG

`NC(=O)c1csc([C@@H]2C[C@H](CO)C2CO)n1` (stereo not given in full): the Induction result (with PC-12 [1]; in test [2]) was “Active” throughout.
Take `NC(=O)c1csc([C@@H]2O[C@H](CO)C2CO)n1` (stereo not given in full): the NA entry (with PC-12 [3]; in test [4]) was “inactive” in each case.
For the compound `NC(=O)c1csc([C@@H]2O[C@H](CO)C(O)[C@H]2O)n1` (single isomer, unassigned), in test [5], the result was Active.

Values taken from ChEMBL document CHEMBL1129140, “Synthesis of C-oxetanosyl-thiazole and its carbocyclic analog nucleosides as potential chemotherapeutic agents” (Bioorg Med Chem Lett, 1996).
